Results: patent US20090275583A1, “ANTIVIRAL COMPOUNDS AND USE THEREOF” (Myriad Genetics, Incorporated, priority 2006, published 2009)
Read-outs that look alike come from different tables or passages of the source.

Assays:
[1] = system: HIV-1 laboratory strain, NL4-3; assay: MT-4 cytoprotection assay; format: cell-based
Experimental: The HTLV-1 transformed T cell line, MT-4, is highly susceptible to HIV-1 infection. Anti-HIV-1 agents were evaluated in this target cell line by protection from the HIV-induced cytopathic effect. In this assay, viability of both HIV-1 and mock-infected cells was assessed in a […] assay that monitors the ability of metabolically-active cells to reduce the tetrazolium salt WST-1. Cytoprotection by antiviral compounds is indicated by the positive readout of increased WST-1 cleavage.
Briefly, exponentially growing MT-4 cells were mock-infected or batch-infected with the HIV-1 laboratory strain, NL4-3, at a multiplicity of infection of 0.0005. Following a two hour infection, the cells were washed to remove unbound virus and plated in the presence of increasing concentrations of compound. After four days incubation, cytoprotection in the infected cells and compound toxicity in mock-infected cells were analyzed using the WST-1 assay.

HIV-1NL4-3 = assay: P4-MAGI assay; format: cell-based
In short: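 Cytotoxicity (TC50, 50% growth inhibition) came from WST-1 in uninfected cells. For antiviral activity, compound at rising concentrations was added immediately after HIV-1NL4-3 inoculation (MOI 1, DEAE-Dextran) of P4 cells, CD4+ HeLa cells expressing β-galactosidase from a minimal HIV-1 LTR upon infection.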

[2] = Human immunodeficiency virus 1, NL43, MT4, 96 h, MT-4 cells, four days incubation, WST-1 readout, read-out: MT4 EC50
[3] = Human immunodeficiency virus 1, NL43, less than about 100 nm, read-out: MT-4 assay EC50 (concentration of compound that reduces the virus induced cytopathic effect by 50%)
[4] = Human immunodeficiency virus 1, 24 h, P4 cells, 24 hour incubation, β-galactosidase expression, read-out: P4-MAGI IC50
[5] = Human immunodeficiency virus 1, text statement, less than about 100 nm, read-out: P4-MAGI assay IC50

Row | Compound | EC50 [1, 2] [nM] | EC50 [1, 3] [nM] | IC50 (HIV-1NL4-3; [4]) [nM] | IC50 (HIV-1NL4-3; [5]) [nM]
1 | C=C(C)[C@@H]1CC[C@]2(C(=O)NCc3cccc(C(=O)NCc4ccc(F)c(C(=O)O)c4)c3)CC[C@]3(C)C(CCC4[C@@]5(C)CC[C@H](O)C(C)(C)C5CC[C@]43C)C12 (some centres unmarked) [Example 27] | 73 | < 100 | 53.5 | < 100
2 | C=C(C)[C@@H]1CC[C@]2(C(=O)NCc3cccc(C(=O)NCc4ccc(C(=O)OC)s4)c3)CC[C@]3(C)C(CCC4[C@@]5(C)CC[C@H](O)C(C)(C)C5CC[C@]43C)C12 (some centres unmarked) [Example 29] | 18 | < 100 | 37.9 | < 100
3 | C=C(C)[C@@H]1CC[C@]2(C(=O)NCc3cccc(C(=O)NCCc4ccc(F)c(C(=O)O)c4)c3)CC[C@]3(C)C(CCC4[C@@]5(C)CC[C@H](O)C(C)(C)C5CC[C@]43C)C12 (some centres unmarked) [Example 32] | 3000 | – | 15 | < 100
4 | C=C(C)[C@@H]1CC[C@]2(C(=O)NCc3cccc(C(=O)NCCc4ccc(F)c(C(=O)OC)c4)c3)CC[C@]3(C)C(CCC4[C@@]5(C)CC[C@H](O)C(C)(C)C5CC[C@]43C)C12 (some centres unmarked) [Example 33] | 18 | < 100 | 135 | –
5 | C=C(C)[C@@H]1CC[C@]2(C(=O)NCc3cccc(C(=O)NCc4ccc(C(=O)O)c(F)c4)c3)CC[C@]3(C)C(CCC4[C@@]5(C)CC[C@H](O)C(C)(C)C5CC[C@]43C)C12 (some centres unmarked) [Example 34] | 19 | < 100 | 24.3 | < 100
6 | C=C(C)[C@@H]1CC[C@]2(C(=O)NCc3cccc(C(=O)NCc4ccc(C(=O)O)s4)c3)CC[C@]3(C)C(CCC4[C@@]5(C)CC[C@H](O)C(C)(C)C5CC[C@]43C)C12 (some centres unmarked) [Example 35] | 85 | < 100 | 53.2 | < 100
7 | C=C(C)[C@@H]1CC[C@]2(C(=O)NCc3cccc(C(=O)NCCc4cccc(C(=O)O)c4F)c3)CC[C@]3(C)C(CCC4[C@@]5(C)CC[C@H](O)C(C)(C)C5CC[C@]43C)C12 (some centres unmarked) [Example 36] | 8.5 | < 100 | 16.4 | < 100
8 | C=C(C)[C@@H]1CC[C@]2(C(=O)NCc3cccc(C(=O)NCC(F)(F)c4ccc(C(=O)O)cc4)c3)CC[C@]3(C)C(CCC4[C@@]5(C)CC[C@H](O)C(C)(C)C5CC[C@]43C)C12 (some centres unmarked) [Example 37] | 7.3 | < 100 | 56.7 | < 100
9 | C=C(C)[C@@H]1CC[C@]2(C(=O)NCc3cccc(C(=O)NCC(C)(C)c4cccc(C(=O)O)c4)c3)CC[C@]3(C)C(CCC4[C@@]5(C)CC[C@H](O)C(C)(C)C5CC[C@]43C)C12 (some centres unmarked) [Example 39] | 5.3 | < 100 | 40.2 | < 100
10 | C=C(C)[C@@H]1CC[C@]2(C(=O)NCc3cccc(C(=O)NCCc4ccc(C(=O)O)c(F)c4)c3)CC[C@]3(C)C(CCC4[C@@]5(C)CC[C@H](O)C(C)(C)C5CC[C@]43C)C12 (some centres unmarked) [Example 40] | 6.3 | < 100 | 19.9 | < 100
11 | C=C(C)[C@@H]1CC[C@]2(C(=O)NCc3cccc(C(=O)NCc4cccc(C(=O)O)c4F)c3)CC[C@]3(C)C(CCC4[C@@]5(C)CC[C@H](O)C(C)(C)C5CC[C@]43C)C12 (some centres unmarked) [Example 41] | 1.9 | < 100 | 36.7 | < 100
12 | C=C(C)[C@@H]1CC[C@]2(C(=O)NCc3cccc(C(=O)NCc4cccc(C(=O)OC)c4F)c3)CC[C@]3(C)C(CCC4[C@@]5(C)CC[C@H](O)C(C)(C)C5CC[C@]43C)C12 (some centres unmarked) [Example 42] | 42 | < 100 | 58.3 | < 100
13 | C=C(C)[C@@H]1CC[C@]2(C(=O)NCc3cccc(C(=O)NCCc4ccc(C(=O)O)cc4F)c3)CC[C@]3(C)C(CCC4[C@@]5(C)CC[C@H](O)C(C)(C)C5CC[C@]43C)C12 (some centres unmarked) [Example 43] | 9.3 | < 100 | 16.8 | < 100
14 | C=C(C)[C@@H]1CC[C@]2(C(=O)NCc3cccc(C(=O)NCCc4ccc(S(N)(=O)=O)cc4)c3)CC[C@]3(C)C(CCC4[C@@]5(C)CC[C@H](O)C(C)(C)C5CC[C@]43C)C12 (some centres unmarked) [Example 45] | 94 | < 100 | 15.9 | < 100
15 | C=C(C)[C@@H]1CC[C@]2(C(=O)NCc3cccc(C(=O)NCc4ccc(N(C)C)cc4)c3)CC[C@]3(C)C(CCC4[C@@]5(C)CC[C@H](O)C(C)(C)C5CC[C@]43C)C12 (some centres unmarked) [Example 47] | 41.3 | < 100 | 36.3 | < 100
16 | C=C(C)[C@@H]1CC[C@]2(C(=O)NCc3cccc(C(=O)NCCc4ccc(C(=O)O)s4)c3)CC[C@]3(C)C(CCC4[C@@]5(C)CC[C@H](O)C(C)(C)C5CC[C@]43C)C12 (some centres unmarked) [Example 48] | 63 | < 100 | 29 | < 100

Row | Compound | EC50 [1, 2] [nM] | EC50 [1, 3] [nM] | IC50 (HIV-1NL4-3; [4]) [nM] | IC50 (HIV-1NL4-3; [5]) [nM]
17 | C=C(C)[C@@H]1CC[C@]2(C(=O)NCCc3cccc(C(=O)NCCCCC(=O)O)c3)CC[C@]3(C)C(CCC4[C@@]5(C)CC[C@H](O)C(C)(C)C5CC[C@]43C)C12 (some centres unmarked) [Example 56] | 310 | – | 46.7 | < 100
18 | C=C(C)[C@@H]1CC[C@]2(C(=O)NCCc3cccc(C(=O)NCCC(=O)O)c3)CC[C@]3(C)C(CCC4[C@@]5(C)CC[C@H](O)C(C)(C)C5CC[C@]43C)C12 (some centres unmarked) [Example 57] | 1200 | – | 98.2 | < 100
19 | C=C(C)[C@@H]1CC[C@]2(C(=O)NCCc3cccc(C(=O)NCc4cccc(C(=O)O)c4)c3)CC[C@]3(C)C(CCC4[C@@]5(C)CC[C@H](O)C(C)(C)C5CC[C@]43C)C12 (some centres unmarked) [Example 58] | 18 | < 100 | 18.6 | < 100
20 | C=C(C)[C@@H]1CC[C@]2(C(=O)NCCc3cccc(C(=O)NCCc4cccc(C(=O)O)c4)c3)CC[C@]3(C)C(CCC4[C@@]5(C)CC[C@H](O)C(C)(C)C5CC[C@]43C)C12 (some centres unmarked) [Example 59] | 68 | < 100 | 66.1 | < 100
21 | C=C(C)[C@@H]1CC[C@]2(C(=O)NCCc3cccc(C(=O)Nc4cccc(C(=O)O)c4)c3)CC[C@]3(C)C(CCC4[C@@]5(C)CC[C@H](O)C(C)(C)C5CC[C@]43C)C12 (some centres unmarked) [Example 60] | 248 | – | 31 | < 100
22 | C=C(C)[C@@H]1CC[C@]2(C(=O)NCCc3cccc(C(=O)Nc4cc(C(=O)O)ccc4N)c3)CC[C@]3(C)C(CCC4[C@@]5(C)CC[C@H](O)C(C)(C)C5CC[C@]43C)C12 (some centres unmarked) [Example 61] | 2300 | – | 65 | < 100
23 | C=C(C)[C@@H]1CC[C@]2(C(=O)NCCc3cccc(C(=O)NCC(=O)OCC)c3)CC[C@]3(C)C(CCC4[C@@]5(C)CC[C@H](O)C(C)(C)C5CC[C@]43C)C12 (some centres unmarked) [Example 62] | 230 | – | 40.4 | < 100
24 | C=C(C)[C@@H]1CC[C@]2(C(=O)NCCc3cccc(C(=O)NC(CCC(=O)OC)C(=O)OC)c3)CC[C@]3(C)C(CCC4[C@@]5(C)CC[C@H](O)C(C)(C)C5CC[C@]43C)C12 (some centres unmarked) [Example 63] | 90 | < 100 | 35.9 | < 100
25 | C=C(C)[C@@H]1CC[C@]2(C(=O)NCCc3cccc(C(=O)N[C@@H](CC(C)C)[C@@H](O)CC(=O)O)c3)CC[C@]3(C)C(CCC4[C@@]5(C)CC[C@H](O)C(C)(C)C5CC[C@]43C)C12 (some centres unmarked) [Example 65] | 83 | < 100 | 156 | –
26 | C=C(C)[C@@H]1CC[C@]2(C(=O)NCCc3cccc(C(=O)NCc4ccc(C(=O)O)cc4)c3)CC[C@]3(C)C(CCC4[C@@]5(C)CC[C@H](O)C(C)(C)C5CC[C@]43C)C12 (some centres unmarked) [Example 67] | 23 | < 100 | 7.5 | < 100
27 | C=C(C)[C@@H]1CC[C@]2(C(=O)NCCc3cccc(C(=O)NCCc4ccc(C(=O)O)cc4)c3)CC[C@]3(C)C(CCC4[C@@]5(C)CC[C@H](O)C(C)(C)C5CC[C@]43C)C12 (some centres unmarked) [Example 68] | 64 | < 100 | 15.2 | < 100
28 | C=C(C)[C@@H]1CC[C@]2(C(=O)NCCc3cccc(C(=O)NCc4ccc(C(=O)O)cc4F)c3)CC[C@]3(C)C(CCC4[C@@]5(C)CC[C@H](O)C(C)(C)C5CC[C@]43C)C12 (some centres unmarked) [Example 69] | 670 | – | 11 | < 100
29 | C=C(C)[C@@H]1CC[C@]2(C(=O)NCCc3cccc(C(=O)NCc4ccc(C(=O)O)s4)c3)CC[C@]3(C)C(CCC4[C@@]5(C)CC[C@H](O)C(C)(C)C5CC[C@]43C)C12 (some centres unmarked) [Example 70] | 1.6 | < 100 | 19.7 | < 100
30 | C=C(C)[C@@H]1CC[C@]2(C(=O)NCCc3cccc(C(=O)NCC(N)=O)c3)CC[C@]3(C)C(CCC4[C@@]5(C)CC[C@H](O)C(C)(C)C5CC[C@]43C)C12 (some centres unmarked) [Example 72] | 10000 | – | 194 | –
31 | C=C(C)[C@@H]1CC[C@]2(C(=O)NCCc3cccc(C(=O)NCc4cccc(C(=O)O)c4F)c3)CC[C@]3(C)C(CCC4[C@@]5(C)CC[C@H](O)C(C)(C)C5CC[C@]43C)C12 (some centres unmarked) [Example 73] | 1.5 | < 100 | 16.2 | < 100
